Read-outs that look alike come from different tables or passages of the source.
Assays:
[1] = tested on: Haemonchus contortus L3; assay: Haemonchus contortus, Larvae Stage 3 (HcL3) In Vitro Assay; conditions: Haemonchus contortus
[2] = target: T1, bovine vesicular acetylcholine transporter (VAChT) (Bos taurus, UniProt E1BK36); assay: Radioligand Binding Assay; conditions: Bovine binding Ki, CHO-K1 membranes with recombinant bovine VAChT, [3H]Compound X6 0.3 nM
T1 sequence (E1BK36 1-524): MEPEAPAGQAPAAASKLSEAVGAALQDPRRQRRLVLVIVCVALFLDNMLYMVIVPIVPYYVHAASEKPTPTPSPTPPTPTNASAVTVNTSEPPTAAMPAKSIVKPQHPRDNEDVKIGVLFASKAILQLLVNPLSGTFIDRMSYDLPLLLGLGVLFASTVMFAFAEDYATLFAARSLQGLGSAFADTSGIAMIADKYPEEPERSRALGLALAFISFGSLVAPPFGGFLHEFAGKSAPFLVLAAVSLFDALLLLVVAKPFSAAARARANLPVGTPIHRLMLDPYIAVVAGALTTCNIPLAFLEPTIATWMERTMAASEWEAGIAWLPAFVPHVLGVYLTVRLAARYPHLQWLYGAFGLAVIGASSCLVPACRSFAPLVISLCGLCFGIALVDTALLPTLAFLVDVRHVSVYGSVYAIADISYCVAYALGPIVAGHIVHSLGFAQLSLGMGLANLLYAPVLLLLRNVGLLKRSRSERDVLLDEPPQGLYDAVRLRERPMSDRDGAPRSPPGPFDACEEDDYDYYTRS
Description: To measure binding affinity, CHO-K1 cells recombinantly expressing the bovine VAChT was generated as a stable cell line and subsequently used to produce membrane preparations.
Radioligand binding assays were conducted in disposable polypropylene 96-well plates. VAChT competition assays were initiated by the addition of bovine recombinant membrane homogenate (50 μg/well) in assay buffer (50 mM Tris-HCl, 120 mM NaCl, 5 mM KCl, 1 mM MgCl, and 2 mM CaCl, pH 7.4) containing [^3H]Compound X6 (0.3 nM) with or without competing ligand. The assay was allowed to equilibrate for 120 minutes at room temperature, before being filtered onto GF/C unifilter plates pre-coated in 0.3% polyethylenimine (Perkin Elmer Life and Analytical Sciences, Boston, Mass.) with a Filtermate 96 harvester (PerkinElmer Life and Analytical Sciences). Filters were washed in ice-cold 50 mM Tris-HCl, pH 7.4 buffer and then counted for radioactivity in a TopCount microplate scintillation counter after addition of 50 μL Microscint 20 (PerkinElmer). Non-specific binding was measured in the presence of 10 μM Compound X6. Apparent dissociation constants (Ki values) from the competition experiments were calculated using an iterative nonlinear regression curve-fitting program (GraphPAD Prism 6.0 Software, San Diego, Calif.) and are reported in Table 2.

[3] = tested on: Dirofilaria immitis microfilariae; assay: Dirofilaria immitis, Microfilariae (DiMF) In Vitro Assay; conditions: Dirofilaria immitis
[4] = 96 h, read-out: HcL3 MEC, Minimal Effective Concentration whereby worm motility is inhibited by approximately 70%, 37° C., tested 0.001-100 μM
[5] = 72 h, read-out: Di MF, MEC, decrease in microfilariae motility by visual assessment, curve starting at 100 μM
[6] = 96 hours, 37° C., read-out: HcL3 MEC

Structure (SMILES) | minimal effective concentration [1, 4] [µM] | Ki [2] [nM] | minimal effective concentration [3, 5] [µM] | minimal effective concentration [1, 6] [µM] | minimal effective concentration ([3]; 72 hours, read-out: Di MF) [µM]
O=C(NCc1ccnc(Cl)c1)N1CC2(CCN(C/C=C/c3ccc(Cl)cc3)CC2)c2c(OC(F)(F)F)ccc(Cl)c21 [Example 121, (E)-7-chloro-1′-(3-(4-chlorophenyl)allyl)-N-((2-chloropyridin-4-yl)methyl)-4-(trifluoromethoxy)spiro[indoline-3,4′-piperidine]-1-carboxamide] | 100 | 1260 | 6.9 | – | –
COc1ccc(/C=C/CN2CCC3(CC2)CN(C(=O)NCc2ccnc(Cl)c2)c2cc(C(F)(F)F)ccc23)cc1 [Example 125, (E)-N-((2-chloropyridin-4-yl)methyl)-1′-(3-(4-methoxyphenyl)allyl)-6-(trifluoromethyl)spiro[indoline-3,4′-piperidine]-1-carboxamide] | 1 | 20.4 | 10 | – | –
O=C(NCc1ccncc1)N1CC2(CCN(C/C=C/c3ccc(Cl)c(Cl)c3)CC2)c2c1ccc1scnc21 [Example 13, (E)-1-(3-(3,4-dichlorophenyl)allyl)-N-(pyridin-4-ylmethyl)spiro[piperidine-4,8′-thiazolo[4,5-e]indole]-6′(7′H)-carboxamide] | 100 | 379 | 10 | – | –
O=C(NCc1ccnc(Br)c1)N1CC2(CCN(C/C=C/c3ccc(Cl)c(Cl)c3)CC2)c2c1ccc1scnc21 [Example 47, (E)-N-((2-bromopyridin-4-yl)methyl)-1-(3-(3,4-dichlorophenyl)allyl)spiro[piperidine-4,8′-thiazolo[4,5-e]indole]-6′(7′H)-carboxamide] | 100 | 919 | 10 | – | –
O=C(NCc1ccnc(Cl)c1)N1CC2(CCN(C/C=C/c3ccc(C(F)(F)F)cc3)CC2)c2cc(OC(F)(F)F)ccc21 [Example 181, (E)-N-((2-chloropyridin-4-yl)methyl)-5-(trifluoromethoxy)-1′-(3-(4-(trifluoromethyl)phenyl)allyl)spiro[indoline-3,4′-piperidine]-1-carboxamide] | 100 | 816 | 10 | – | –
O=C(NCC1CCCO1)N1CC2(CCN(C/C=C/c3ccc(Cl)c(Cl)c3)CC2)c2c1ccc1scnc21 (racemic) [Example 34, (+/−)(E)-1-(3-(3,4-dichlorophenyl)allyl)-N-((tetrahydrofuran-2-yl)methyl)spiro[piperidine-4,8′-thiazolo[4,5-e]indole]-6′(7′H)-carboxamide] | 100 | 467 | 3.3 | – | –
O=C(NCc1ccnc(F)c1)N1CC2(CCN(C/C=C/c3ccc(Cl)cc3)CC2)c2cc(C(F)(F)F)ccc21 [Example 82, (E)-1′-(3-(4-chlorophenyl)allyl)-N-((2-fluoropyridin-4-yl)methyl)-5-(trifluoromethyl)spiro[indoline-3,4′-piperidine]-1-carboxamide] | 7.6 | 572 | 4.4 | – | –
COc1ccc2ccc(CN3CCC4(CC3)CN(C(=O)NCc3ccnc(F)c3)c3ccc(C#N)cc34)c(C)c2n1 [Example 117, 5-cyano-N-[(2-fluoro-4-pyridyl)methyl]-1′-[(2-methoxy-8-methyl-7-quinolyl)methyl]spiro[indoline-3,4′-piperidine]-1-carboxamide] | 10 | 191 | 10 | – | –
COc1ccc2ccc(CN3CCC4(CC3)CN(C(=O)NCc3ccnc(Cl)c3)c3ccc(C#N)cc34)c(C)c2n1 [Example 118, N-[(2-chloro-4-pyridyl)methyl]-5-cyano-1′-[(2-methoxy-8-methyl-7-quinolyl)methyl]spiro[indoline-3,4′-piperidine]-1-carboxamide] | 3.3 | 28.4 | 57.4 | – | –
O=C(NCc1cnc(Cl)s1)N1CC2(CCN(C/C=C/c3ccc(Cl)cc3)CC2)c2cc(OC(F)(F)F)ccc21 [Example 189, (E)-1′-(3-(4-chlorophenyl)allyl)-N-((2-chlorothiazol-5-yl)methyl)-5-(trifluoromethoxy)spiro[indoline-3,4′-piperidine]-1-carboxamide] | – | 792 | – | 100 | 14
O=C(NCC1CCCC1)N1CC2(CCN(C/C=C/c3ccc(Cl)c(Cl)c3)CC2)c2c1ccc1scnc21 [Example 33, (E)-N-(cyclopentylmethyl)-1-(3-(3,4-dichlorophenyl)allyl)spiro[piperidine-4,8′-thiazolo[4,5-e]indole]-6′(7′H)-carboxamide] | 100 | 1640 | 10 | – | –
O=C(NCc1ccnc(Cl)c1)N1CC2(CCN(C/C=C/c3ccc(OC(F)(F)F)cc3)CC2)c2ccc(C(F)(F)F)cc21 [Example 130, (E)-N-((2-chloropyridin-4-yl)methyl)-1′-(3-(4-(trifluoromethoxy)phenyl)allyl)-6-(trifluoromethyl)spiro[indoline-3,4′-piperidine]-1-carboxamide] | 1.8 | 193 | 18.2 | – | –
N#Cc1ccc(-c2ccc3c(c2)C2(CCN(C/C=C/c4ccc(Cl)cc4)CC2)CN3C(=O)NCc2ccnc(F)c2)cn1 [Example 109, 1′-[(E)-3-(4-chlorophenyl)allyl]-5-(6-cyano-3-pyridyl)-N-[(2-fluoro-4-pyridyl)methyl]spiro[indoline-3,4′-piperidine]-1-carboxamide] | 3.3 | 50.8 | 1.8 | – | –
O=C(NCc1ccnc(Cl)c1)N1CC2(CCN(C/C=C/c3ccc(Cl)c(Cl)c3)CC2)c2cc(Cl)cc(Cl)c21 [Example 171, (E)-5,7-dichloro-N-((2-chloropyridin-4-yl)methyl)-1′-(3-(3,4-dichlorophenyl)allyl)spiro[indoline-3,4′-piperidine]-1-carboxamide] | – | 20.9 | – | 69.1 | 7.6
O=C(NCc1ccnc(Cl)c1)N1CC2(CCN(C/C=C/c3ccc(Cl)c(Cl)c3)CC2)c2cc(C(F)(F)F)ccc21 [Example 133, (E)-N-((2-chloropyridin-4-yl)methyl)-1′-(3-(3,4-dichlorophenyl)allyl)-5-(trifluoromethyl)spiro[indoline-3,4′-piperidine]-1-carboxamide] | – | 546 | – | 3.3 | 7.6
O=C(NCc1ccnc(Cl)c1)N1CC2(CCN(C/C=C/c3ccc(Cl)c(Cl)c3)CC2)c2cc3c(cc21)CCC3 [Example 12, (E)-N-((2-chloropyridin-4-yl)methyl)-1′-(3-(3,4-dichlorophenyl)allyl)-2,5,6,7-tetrahydro-1H-spiro[cyclopenta[f]indole-3,4′-piperidine]-1-carboxamide] | – | 56.3 | – | 2.2 | 10
O=C(NCc1ncccn1)N1CC2(CCN(C/C=C/c3ccc(Cl)c(Cl)c3)CC2)c2c1ccc1scnc21 [Example 14, (E)-1-(3-(3,4-dichlorophenyl)allyl)-N-(pyrimidin-2-ylmethyl)spiro[piperidine-4,8′-thiazolo[4,5-e]indole]-6′(7′H)-carboxamide] | 100 | 721 | 10 | – | –
O=C(NCC1CCCCC1)N1CC2(CCN(C/C=C/c3ccc(Cl)c(Cl)c3)CC2)c2c1ccc1scnc21 [Example 25, (E)-N-(cyclohexylmethyl)-1-(3-(3,4-dichlorophenyl)allyl)spiro[piperidine-4,8′-thiazolo[4,5-e]indole]-6′(7′H)-carboxamide] | 100 | 7590 | 13.5 | – | –
O=C(NCc1ccnc(F)c1)N1CC2(CCN(C/C=C/c3ccc(Cl)cc3)CC2)c2c(OC(F)(F)F)cccc21 [Example 94, (E)-1′-(3-(4-chlorophenyl)allyl)-N-((2-fluoropyridin-4-yl)methyl)-4-(trifluoromethoxy)spiro[indoline-3,4′-piperidine]-1-carboxamide] | 100 | 3930 | 3.3 | – | –
O=C(NCc1ccnc(Cl)c1)N1CC2(CCN(C/C=C/c3ccc(Cl)cc3)CC2)c2c(Br)cccc21 [Example 156, (E)-4-bromo-1′-(3-(4-chlorophenyl)allyl)-N-((2-chloropyridin-4-yl)methyl)spiro[indoline-3,4′-piperidine]-1-carboxamide] | 7.8 | 71.5 | 5.7 | – | –
O=C(NCc1ccnc(Cl)c1)N1CC2(CCN(C/C=C/c3ccc(C(F)(F)F)cn3)CC2)c2cc(OC(F)(F)F)ccc21 [Example 182, (E)-N-((2-chloropyridin-4-yl)methyl)-5-(trifluoromethoxy)-1′-(3-(5-(trifluoromethyl)pyridin-2-yl)allyl)spiro[indoline-3,4′-piperidine]-1-carboxamide] | 10 | 1470 | 10 | – | –
